# Test results published in PubChem BioAssay (NCI).
#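 Each compound was tested at five concentrations against cells in 96-well plates for 48 hours. The concentration for 50% growth inhibition is given as GI50. TGI marks complete inhibition of growth.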
# Columns and labels:
# Test in all cases: inhibition of tumour cell growth, NCI panel, 48 h
# RXF 393 renal = system: RXF 393 renal
# ACHN renal = system: ACHN renal
# A498 renal = system: A498 renal
# UACC-62 melanoma = system: UACC-62 melanoma
# MOLT-4 leukemia = system: MOLT-4 leukemia
# EKVX NSCLC = system: EKVX NSCLC
# DU-145 prostate = system: DU-145 prostate
# A549 NSCLC = system: A549 NSCLC
# HOP-92 NSCLC = system: HOP-92 NSCLC
# HT29 colon = system: HT29 colon
Compound,GI50 (RXF 393 renal) [µM],TGI (RXF 393 renal) [µM],GI50 (ACHN renal) [µM],TGI (ACHN renal) [µM],GI50 (A498 renal) [µM],TGI (A498 renal) [µM],GI50 (UACC-62 melanoma) [µM],TGI (UACC-62 melanoma) [µM],GI50 (MOLT-4 leukemia) [µM],TGI (MOLT-4 leukemia) [µM],GI50 (EKVX NSCLC) [µM],TGI (EKVX NSCLC) [µM],GI50 (DU-145 prostate) [µM],TGI (DU-145 prostate) [µM],GI50 (A549 NSCLC) [µM],TGI (A549 NSCLC) [µM],GI50 (HOP-92 NSCLC) [µM],TGI (HOP-92 NSCLC) [µM],GI50 (HT29 colon) [µM],TGI (HT29 colon) [µM]
N/C(=N\c1nc2ccccc2s1)NC(=O)Nc1ccccc1Cl,0.0983,1.56,0.227,7.17,0.0818,0.579,0.125,> 78.9,0.167,> 56.6,0.427,> 100,0.259,9.28,0.19,18.1,0.356,56.4,0.105,6.31
O=C1/C(=C/c2ccccc2)CN(CCC(=O)N2C/C(=C\c3ccccc3)C(=O)/C(=C/c3ccccc3)C2)C/C1=C\c1ccccc1,6.65,19.9,8.92,30.3,1.5,17.8,7.19,33.9,2.6,> 100,18.2,67.5,21.1,73.9,29.3,> 100,10.4,29.7,0.635,> 55.9
N=C1C(c2nc3ccccc3s2)=C(O)CN1c1ccc(Cl)cc1Cl,10.8,36.1,13,28.8,12.5,50.7,12,52.9,22.7,> 100,29.9,85.5,18.9,63.7,11.6,35.6,15.8,38.1,16.4,> 100
CN(C)c1ccc2cc(-c3cc4c(oc3=O)-c3ccccc3OC4O)c(=O)oc2c1 (stereo not given),2.69,6.53,4.29,12.5,5.67,23.5,4.08,8.53,0.919,5.51,2.18,> 25,5.18,15.9,3.22,7.15,7.49,17.7,5.73,21.8
CCOC(=O)C#Cc1ccc([N+](=O)[O-])cc1,,2.63,,10.2,,32,,4.05,,5.22,,4.71,,3.12,,27,,3.47,,2.94
COc1cc(C)[nH]c(=O)c1CN1CCc2c(Cl)cc([C@H](OC)C3COC3)c(Cl)c2C1=O,> 100,> 100,> 100,> 100,> 100,> 100,> 100,> 100,> 100,> 100,> 100,> 100,> 100,> 100,> 100,> 100,> 100,> 100,> 100,> 100
